US9695155B2, “Herbicidal substituted pyrimidinyloxy benzene compounds” (E. I. DU PONT DE NEMOURS AND COMPANY, priority 2013, dated 2017)

Columns and labels:
wheat, winter = test: Test C postemergence; format: in vivo, Triticum aestivum; conditions: for Wheat plant response rating: 31 g ai/ha; for Wheat plant response rating / Plant response rating, Wheat: scale 0 to 100 (0 no effect, 100 complete control)
Outline: (§1)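 Visual injury score versus untreated controls, 0 = no effect, 100 = complete control, taken 13 to 15 days after treatment in the greenhouse. Pre-emergence pots held loam/sand; post-emergence plants grew in sphagnum peat/vermiculite mix and were sprayed at the 1- to 4-leaf stage.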

sedge, umbrella = test: Test B flooded paddy test; format: in vivo, Cyperus difformis; conditions: Flood, 250 g ai/ha; 0 to 100 scale where 0 is no effect and 100 is complete control
Outline: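 2-leaf stage plants; pots flooded to 3 cm, compound added to paddy water, depth maintained. Greenhouse 13–15 d. Visual rating vs untreated controls, 0 (no effect) to 100 (complete control); dash = no result.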

wheat = test: Test A postemergence; format: in vivo, Triticum aestivum
Outline: (§2)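 Injury scores run from 0, no effect, to 100, complete control, judged by eye against untreated plants roughly 10 days after treatment. Chemicals carried a surfactant in a non-phytotoxic solvent and went onto loam–sand soil preemergence or onto one- to two-leaf seedlings postemergence.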

galium = test: Test C postemergence; format: in vivo, Galium aparine; conditions: for Galium plant response rating: 31 g ai/ha; for Galium plant response rating / Plant response rating, Galium: scale 0 to 100 (0 no effect, 100 complete control)
Outline: as §1

lambsquarters = test: Test C postemergence; format: in vivo, Chenopodium album; conditions: for Lambsquarters plant response rating: 31 g ai/ha; for Lambsquarters plant response rating / Plant response rating, Lambsquarters: scale 0 to 100 (0 no effect, 100 complete control)
Outline: as §1

Italian ryegrass = test: Test C postemergence; format: in vivo, Lolium multiflorum; conditions: for Ryegrass, Italian plant response rating: 31 g ai/ha; for Ryegrass, Italian plant response rating / Plant response rating, Ryegrass, Italian: scale 0 to 100 (0 no effect, 100 complete control)
Outline: as §1

oilseed rape = test: Test C postemergence; format: in vivo, Brassica napus; conditions: for Oilseed Rape plant response rating: 31 g ai/ha; for Oilseed Rape plant response rating / Plant response rating, Oilseed Rape: scale 0 to 100 (0 no effect, 100 complete control)
Excerpt: (§3) Seeds of plant species selected from blackgrass (Alopecurus myosuroides), Italian ryegrass (Lolium multiflorum), wheat, winter (winter wheat, Triticum aestivum), galium (catchweed bedstraw, Galium aparine), corn (Zea mays), large (Lg) crabgrass (Digitaria sanguinalis), giant foxtail (Setaria faberii), johnsongrass (Sorghum halepense), lambsquarters (Chenopodium album), morningglory (Ipomoea coccinea), yellow nutsedge (Cyperus esculentus), pigweed (Amaranthus retroflexus), ragweed (common ragweed, Ambrosia elatior), soybean (Glycine max), barnyardgrass (Echinochloa crus-galli), oilseed rape (Brassica napus), waterhemp (common waterhemp, Amaranthus rudis), kochia (Kochia scoparia), wild oat (Avena fatua), surinam grass (Brachiaria decumbens), foxtail, green (green foxtail, Setaria viridis), goosegrass (Eleusine indica), bromegrass, downy (downy bromegrass, Bromus tectorum), nightshade (eastern black nightshade, Solanum ptycanthum), cocklebur (common cocklebur, Xanthium strumarium), cupgrass, woolly (woolly cupgrass, Eriochloa villosa), bermudagrass (Cynodon dactylon), sunflower, (common oilseed sunflower, Helianthus annuus), Russian thistle (Salsola kali), and velvetleaf (Abutilon theophrasti) were planted into a blend of loam soil and sand and treated preemergence with test chemicals formulated in a non-phytotoxic solvent mixture which included a surfactant.
(§4) At the same time, plants selected from these crop and weed species and also barley, winter (winter barley, Hordeum vulgare), windgrass (Apera spica-venti), chickweed (common chickweed, Stellaria media), deadnettle (henbit deadnettle, Lamium amplexicaule), and canarygrass (littleseed canarygrass, Phalaris minor) were planted in pots containing Redi-Earth® planting medium (Scotts Company, 14111 Scottslawn Road, Marysville, Ohio 43041) comprising spaghnum peat moss, vermiculite, wetting agent and starter nutrients and treated with postemergence applications of test chemicals formulated in the same manner. Plants ranged in height from 2 to 18 cm (1- to 4-leaf stage) for postemergence treatments. Treated plants and controls were maintained in a greenhouse for 13 to 15 days, after which time all species were compared to controls and visually evaluated. Plant response ratings, summarized in Table C, are based on a scale of 0 to 100 where 0 is no effect and 100 is complete control. A dash (-) response means no test result.

velvetleaf [1] = test: Test C postemergence; format: in vivo, Abutilon theophrasti; conditions: for Velvetleaf plant response rating: 31 g ai/ha; for Velvetleaf plant response rating / Plant response rating, Velvetleaf: scale 0 to 100 (0 no effect, 100 complete control)
Outline: as §1

barnyardgrass = test: Test C postemergence; format: in vivo, Echinochloa crus-galli; conditions: for Plant response rating, Barnyardgrass / Barnyardgrass plant response rating: scale 0 to 100 (0 no effect, 100 complete control)
Excerpt: as §3, §4

corn = test: Test A preemergence; format: in vivo, Zea mays; conditions: 1000 g ai/ha, 0 to 100 scale, 0 no effect, 100 complete control
Outline: as §2

velvetleaf [2] = test: Test A preemergence; format: in vivo, Abutilon theophrasti; conditions: 1000 g ai/ha, 0 to 100 scale, 0 no effect, 100 complete control, approx. 10 days
Outline: as §2

[3] = 8 g ai/ha, postemergence, 0 is no effect, 100 is complete control
[4] = 16 g ai/ha, postemergence, 0 is no effect, 100 is complete control
[5] = 1000 g ai/ha, 0 to 100 scale, 0 no effect, 100 complete control
[6] = postemergence, visual rating, 13 to 15 days
[7] = 125 g ai/ha, postemergence, visual rating
[8] = 31 g ai/ha, postemergence, visual rating, 13 to 15 days
[9] = Postemergence, 62 g ai/ha, 13 to 15 days

Compound | Plant response rating (0 to 100), Wheat (wheat, winter; [4]) | Plant response rating, Sedge, Umbrella (sedge, umbrella) | Plant response rating, Wheat (wheat; [5]) | Plant response rating (0 to 100), Galium (galium; [4]) | Plant response rating (0 to 100), Lambsquarters (lambsquarters; [4]) | Plant response rating (0 to 100), Ryegrass, Italian (Italian ryegrass; [4]) | Plant response rating (0 to 100), Oilseed Rape (oilseed rape; [4]) | Plant response rating (0 to 100), Velvetleaf (velvetleaf [1]; [4]) | Plant response rating (0 to 100), Barnyardgrass (barnyardgrass; [4]) | Wheat plant response rating (wheat, winter; [6]) | Plant response rating, Wheat (wheat, winter; [7]) | Galium plant response rating (galium; [6]) | Plant response rating, Galium (galium; [7]) | Lambsquarters plant response rating (lambsquarters; [6]) | Plant response rating, Lambsquarters (lambsquarters; [7]) | Ryegrass, Italian plant response rating (Italian ryegrass; [6]) | Plant response rating, Ryegrass, Italian (Italian ryegrass; [7]) | Oilseed Rape plant response rating (oilseed rape; [6]) | Plant response rating, Oilseed Rape (oilseed rape; [7]) | Velvetleaf plant response rating (velvetleaf [1]; [6]) | other results
CC(=NO)c1cn(-c2c(Br)cccc2Oc2ncc(Cl)cn2)nn1 [Compound 115] | 0 | 20 | 90 | 40 | 10 | 0 | 0 | 5 | 0 |  |  |  |  |  |  |  |  |  |  |  | Plant response rating (0 to 100), Wheat (wheat, winter; [3]): 0; Plant response rating (0 to 100), Galium (galium; [3]): 5; Plant response rating (0 to 100), Lambsquarters (lambsquarters; [3]): 10; Plant response rating (0 to 100), Ryegrass, Italian (Italian ryegrass; [3]): 0; Plant response rating (0 to 100), Oilseed Rape (oilseed rape; [3]): 0; Plant response rating (0 to 100), Velvetleaf (velvetleaf [1]; [3]): 5; Plant response rating (0 to 100), Barnyardgrass (barnyardgrass; 4 g ai/ha, postemergence, 0 is no effect, 100 is complete control): 0; Plant response rating (0 to 100), Barnyardgrass (barnyardgrass; [3]): 0; Plant response rating, Barnyardgrass (barnyardgrass; Postemergence, 31 g ai/ha, 13 to 15 days): 5; Plant response rating, Corn (corn): 60; Velvetleaf plant response rating (velvetleaf [2]): 100
Fc1cccc(Oc2ncc(Cl)cn2)c1-n1cc(C2CC2)nn1 [Compound 155] | 5 | 80 | 90 | 75 | 65 | 0 | 60 | 45 | 0 | 10 | 35 | 95 | 100 | 90 | 98 | 0 | 10 | 50 | 80 | 75 | Plant response rating, Wheat (wheat, winter; Postemergence, 62 g ai/ha): 15; Plant response rating, Galium (galium; Postemergence, 62 g ai/ha): 98; Plant response rating, Lambsquarters (lambsquarters; Postemergence, 62 g ai/ha): 98; Plant response rating, Ryegrass, Italian (Italian ryegrass; Postemergence, 62 g ai/ha): 10; Plant response rating, Oilseed Rape (oilseed rape; Postemergence, 62 g ai/ha): 50; Plant response rating, Velvetleaf (velvetleaf [1]; [7]): 85; Plant response rating, Velvetleaf (velvetleaf [1]; Postemergence, 62 g ai/ha): 70; Barnyardgrass plant response rating (barnyardgrass; [8]): 5; Plant response rating, Barnyardgrass (barnyardgrass; [7]): 10; Plant response rating, Barnyardgrass (barnyardgrass; Postemergence, 62 g ai/ha): 5
N#Cc1cccc(Oc2ncc(Cl)cn2)c1-n1cc(-n2ccc(C(F)(F)F)n2)cn1 [Compound 284] |  | 85 |  |  |  |  |  |  |  | 0 | 5 | 100 | 85 | 70 | 98 | 5 | 5 | 70 | 80 | 15 | Plant response rating (0 to 100), Wheat (wheat, winter; 250 g ai/ha, postemergence): 5; Plant response rating, Wheat (wheat, winter; [9]): 5; Plant response rating, Wheat (wheat; 125 g ai/ha, 0 to 100 scale, 0 no effect, 100 complete control): 20; Plant response rating, Wheat (wheat; 500 g ai/ha, 0 to 100 scale where 0 is no effect and 100 is complete control): 20; Plant response rating (0 to 100), Galium (galium; 250 g ai/ha, postemergence): 100; Plant response rating, Galium (galium; [9]): 85; Plant response rating (0 to 100), Lambsquarters (lambsquarters; 250 g ai/ha, postemergence): 98; Plant response rating, Lambsquarters (lambsquarters; [9]): 85; Plant response rating (0 to 100), Ryegrass, Italian (Italian ryegrass; 250 g ai/ha, postemergence): 5; Plant response rating, Ryegrass, Italian (Italian ryegrass; [9]): 5; Plant response rating (0 to 100), Oilseed Rape (oilseed rape; 250 g ai/ha, postemergence): 80; Plant response rating, Oilseed Rape (oilseed rape; [9]): 70; Plant response rating, Velvetleaf (velvetleaf [1]; [7]): 30; Plant response rating (0 to 100), Velvetleaf (velvetleaf [1]; 250 g ai/ha, postemergence): 70; Plant response rating, Velvetleaf (velvetleaf [1]; [9]): 15; Barnyardgrass plant response rating (barnyardgrass; [8]): 10; Plant response rating, Barnyardgrass (barnyardgrass; [7]): 15; Plant response rating (0 to 100), Barnyardgrass (barnyardgrass; 250 g ai/ha, postemergence): 15; Plant response rating, Barnyardgrass (barnyardgrass; [9]): 10
